Laboratory results: patent EP2450458B1, “Novel microorganisms producing a thermostable lipase and their use” (Universiti Putra Malaysia (UPM), priority 2010, dated 2012)
Several values for one entry are separate records, joined by “and”; a condition that tells them apart may be missing. Identical values can stand only once.

Assays:
[1] = test system: purified recombinant ARM thermostable lipase; test: Lipase organic solvent-stability; format: biochemical, Geobacillus sp. strain ARM; settings: solvent 30% v/v, 30 min at 30°C, 150 rpm; assay at 65°C
Description: Aliquots of the enzyme were incubated with the solvents (30%, v/v) for 30 min at 30°C with shaking at 150 rpm. […] The stability was expressed as the remaining lipolytic activity relative to that of the control (without solvent). The relative activity was measured at 65°C as described before.

[2] = values in parenthesis used to select the solvents; cited from earlier work
[3] = test system: purified recombinant ARM thermostable lipase; test: Effect of surfactants on lipase activity; format: biochemical, Geobacillus sp. strain ARM; settings: pre-incubation 30 min at 30°C, assay at 65°C
Description: The effect of surfactants on the lipase activity was investigated by pre-incubating the purified enzyme for 30 min at 30°C in Tris-HCl buffer (50 mM, pH 8.0) containing 0.1 and 1% (v/v) of following surfactants (nonionic surfactants): Tween 20, Tween 40, Tween 80, Tween 85, Triton X-100, Triton B1958, Span 20. In the case of SDS (ionic surfactant) concentrations were 1 and 5 mM. The control contained no surfactant. The relative activity was measured at 65°C using olive oil (emulsified, 1:1 v/v, in 50 mM Tris-HCl buffer, pH 8.0) as substrate. The effects of various surfactants on the purified ARM lipase are depicted in Figure 30.

[4] = test system: purified recombinant ARM thermostable lipase; test: Effect of ionic liquids on lipase hydrolytic activity; format: biochemical, Geobacillus sp. strain ARM; settings: 90% (v/v) ionic liquid, 0 min, without incubation; assay at 65°C
Description: (§1) Aliquots of the enzyme were suspended in 90% (v/v) of four different ionic liquids (ILs) properly. Then, the mixture of lipase and ILs was incubated for 0-90 min at 60°C with shaking at 150 rpm. The selected ILs were [Emim][BF4], [Emim][TfO], [Bmim][BF4] and […]. The thermostability was expressed as the remaining lipolytic activity relative to that of the control (without ILs) after incubation at high temperature. The residual activity was measured at 65°C as described before.

[5] = test system: purified recombinant ARM thermostable lipase; test: Effect of ionic liquids on lipase thermostability at 60°C; format: biochemical, Geobacillus sp. strain ARM; settings: 90% (v/v) ionic liquid, 0-90 min at 60°C, 150 rpm; assay at 65°C
Description: as §1

[6] = test system: purified recombinant ARM thermostable lipase; test: Effect of metal ions on lipase activity; format: biochemical, Geobacillus sp. strain ARM; settings: pre-incubation 30 min at 30°C, assay at 65°C
Description: To determine the effects of metal ions on the lipase activity, the purified enzyme was pre-incubated for 30 min at 30°C with various metal ions. Two concentrations (1 and 5 mM) of each of the following ions were used: CO^2+, CU^2+, Mg^2+, Ni^2+, Mn^2+, Zn^2+ Fe^2+, Ca^2+, Sr^2+, K^+, Na^+, Rb^+ and Ag^+. All salts were dissolved in MOPS buffer (50 mM, pH 8.0) (Aslamkhan et al., 2002). The control contained no ion. The relative activity was measured at 65°C using olive oil (emulsified, 1:1 v/v, in 50 mM Tris-HCl buffer, pH 8.0) as substrate. Metal cations play different and important roles in influencing the structure and function of lipases (Gupta et al.., 2004a; Kim et al., 2005). The effect of different metal ions on the purified ARM lipase activity was studied (Figure 29). […] The Ca^2+-binding motif was not found in ARM lipase sequence.

[7] = test system: purified recombinant ARM thermostable lipase; test: Effect of inhibitors on lipase activity; format: biochemical, Geobacillus sp. strain ARM; settings: pre-incubation 30 min at 30°C, assay at 65°C
Description: The control contained no inhibitor. The relative activity was measured at 65°C using olive oil (emulsified, 1:1 v/v, in 50 mM Tris-HCl buffer, pH 8.0) as substrate.

Compound	log P [2]	remaining lipolytic activity relative to the control (without solvent) [1]	also measured
CC#N [acetonitrile]	-0.394	–	effect on lipase activity/stability [1]: dramatically inhibited
Triton X-100	–	–	increase in lipase activity ([3]; 1% surfactant): 20%
CCCCCCCCCCO [1-decanol]	–	86%	–
CCCCCCCCCCCO [1-undecanol]	4.6	74%	–
c1ccccc1 [benzene]	–	more than 100%	–
Span 20	–	–	effect on lipase activity ([3]; 0.1 and 1% (v/v) surfactant): not affected
1-butanol	–	–	effect on lipase activity/stability [1]: dramatically inhibited
CCc1ccccc1 [ethylbenzene]	3.3	77%	–
CC(C)CCO [iso-amyl alcohol]	1.3	–	effect on lipase activity/stability [1]: dramatically inhibited
CCCCCCCCCCCCCCCCC [heptadecane]	8.69	more than 100%	–
OCc1ccccc1 [bnzyl alcohol]	–	–	effect on lipase activity/stability [1]: dramatically inhibited
CCn1cc[n+](C)c1.F[B-](F)(F)F [[Emim][BF4]]	–	–	effect on lipase activity [4]: no significant effect; effect on lipase thermostability [5]: significant effects on lipase thermostability enhancement
[Ca+2] [Ca^2+]	–	–	effect on lipase activity ([6]; 1 and 5 mM ion): stimulated the lipase activity
CCCCCCCCCCCCCCC [n-pentadecane]	7.71	more than 100%	–
CCCCCCCCCCCCOS(=O)(=O)[O-].[Na+] [SDS]	–	–	effect on lipase activity ([3]; 1 and 5 mM (ionic surfactant)): strongly inhibited
CC(C)O [2-propanol]	–	–	effect on lipase activity/stability [1]: dramatically inhibited
CCCCn1cc[n+](C)c1.F[B-](F)(F)F [[Bmim][BF4]]	–	–	effect on lipase activity [4]: decreased lipase activity
CCCCCCCCCCCCO [1-dodecanol]	5	more than 100%	–

Compound	log P [2]	remaining lipolytic activity relative to the control (without solvent) [1]	also measured
CCCCCCCCCCCCCC [n-tetradecane]	7	more than 100%	–
CCCCn1cc[n+](C)c1.F[P-](F)(F)(F)(F)F [[Bmim][PH6]]	–	–	lipase activity relative to the control (without ILs) [4]: up to 120%
CCn1cc[n+](C)c1.O=S(=O)([O-])C(F)(F)F [[Emim][TfO]]	–	–	lipase activity relative to the control (without ILs) [4]: up to 120%; effect on lipase thermostability [5]: significant effects on lipase thermostability enhancement
[Sr+2] [Sr^2+]	–	–	effect on lipase activity ([6]; 1 mM ion): stimulated the lipase activity
CC(C)CC(C)(C)C [iso-octane]	4.5	more than 100%	–
CC(O)C(C)O (stereo not shown) [2,3-butanediol]	-0.92	–	–
CCCCCCCCO [1-octanol]	2.9	more than 100%	–
CC(C)CO [iso-butanol]	0.79	–	effect on lipase activity/stability [1]: dramatically inhibited
hexanes	3.6	more than 100%	–
CCCCCCCCCCCCCCCC [1-hexadecane]	–	78%	–
CC(C)=O [acetone]	-0.208	–	effect on lipase activity/stability [1]: dramatically inhibited
1-propanol	–	–	effect on lipase activity/stability [1]: dramatically inhibited
Cc1ccccc1 [toluene]	–	more than 100%	–
CCCCCCC [heptan]	4.4	more than 100%	–
C[S+](C)[O-] [DMSO]	–	62.5% and 62.4%	–
Cc1ccccc1C [o-xylene]	–	more than 100%	–
O=C(O)CN(CCN(CC(=O)O)CC(=O)O)CC(=O)O [EDTA, ethylene diamine tetra-acetic acid]	–	–	activation of the lipase ([7]; 1 mM): around 20%; activation of the lipase ([7]; 5 mM): more than 60%
